Each structure is given as a SMILES string.

Series [1] addresses human estrogen receptor β receptor (hERβ) (Homo sapiens, UniProt Q92731). In words: ERβ transactivation bioassay in recombinant CHO cells (rat oxytocin promoter, luciferase reporter). It counts as cell-based. The note with it: for ERβ/ERα ratio: ERβ agonistic selectivity over ERα, transactivation data; for EC50: transactivation of luciferase via hERβ in CHO cells, read-out: ERβ agonistic EC50; for ERβ eudismic ratio: ratio of the activities of the eutomer and the distomer on ERβ. As to the method:
(§1) The estrogenic and antiestrogenic activity of compounds was determined in an in vitro bioassay with recombinant Chinese hamster ovary (CHO) cells stably co-transfected with the human estrogen receptor α (hERα) or β receptor (hERβ), the rat oxytocin promoter (RO) and the luciferase reporter gene (LUC). The estrogenic activity of a test compound to stimulate the transactivation of the enzyme luciferase mediated via the estrogen receptors hERα or hERβ is expressed in nM. The assay was performed as described by De Gooyer et al., Steroids 68 (2003), 21-30. Table 7. ERβ and ERα transactivation data

The nature of series [2]: metabolic stability in human hepatocytes. It counts as in vitro ADME. To be noted: cryopreserved human hepatocytes in suspension, tetrahydronaphthalen-2-ol, 37°C, sampled 0-120 min, LC-MS/MS, read-out: Human hepatocyte T1/2. As to the method:
A number of compounds 9, 11 and 12 were tested on metabolic stability in human hepatocytes. The hepatic stability was compared to corresponding chroman compounds 25, 26 or 27 (see structures below).
Test compounds were diluted to 3 µM in incubation medium. Then 40 µl of the 3 µM test compounds was pipetted into a 96 well microtiter plate (flat bottom). Hepatocytes (stored at -140 °C) were thawed in a 37°C water bath. The cells were resuspended into pre-warmed thawing medium and were centrifuged for 5 minutes at 50g at room temperature. The supernatant was discarded and the remaining cell pellet was resuspended in warm incubation medium and diluted to 7.5 E5 cells/ml. Then 80 µl of the cell suspension was added to each well of the 96 well microtiter plate containing the test compounds. The resulting mixture was incubated at 37°C and was sampled at t=0, 5, 30, 60, and 120 min. The samples were analyzed by LC-MS/MS to determine the content of unchanged test compound. Based on the rate of reduction of the content of test compound over time, the half-live (T1/2) was calculated. Metabolic stability in human hepatocytes

For series [3], the target named is T1, human estrogen receptor α (hERα) (Homo sapiens, UniProt P03372).
T1 sequence (P03372 1-595): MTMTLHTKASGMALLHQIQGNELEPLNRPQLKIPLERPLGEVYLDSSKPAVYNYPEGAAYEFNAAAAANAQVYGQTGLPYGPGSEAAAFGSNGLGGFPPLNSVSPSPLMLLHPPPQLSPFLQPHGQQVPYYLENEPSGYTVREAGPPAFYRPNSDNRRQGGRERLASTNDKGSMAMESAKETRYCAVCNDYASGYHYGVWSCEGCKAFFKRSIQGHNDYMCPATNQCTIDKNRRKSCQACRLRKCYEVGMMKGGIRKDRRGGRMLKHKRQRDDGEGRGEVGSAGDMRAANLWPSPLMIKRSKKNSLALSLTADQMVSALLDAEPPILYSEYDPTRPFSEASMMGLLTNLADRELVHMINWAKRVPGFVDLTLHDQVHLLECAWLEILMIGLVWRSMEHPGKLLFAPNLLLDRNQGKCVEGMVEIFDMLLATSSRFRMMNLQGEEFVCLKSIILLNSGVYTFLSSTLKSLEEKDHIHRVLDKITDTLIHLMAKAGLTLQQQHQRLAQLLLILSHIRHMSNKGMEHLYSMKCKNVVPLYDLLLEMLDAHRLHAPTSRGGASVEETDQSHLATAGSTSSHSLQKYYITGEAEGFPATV
In words: ERα transactivation bioassay in recombinant CHO cells (rat oxytocin promoter, luciferase reporter). It counts as cell-based. The note with it: ratio of the activities of the eutomer and the distomer on ERα. As for the experimental part:
as §1

The subject of series [4] is acinar epithelium of the ventral prostate. In words: short-term prostate apoptosis and proliferation model in castrated rats. It counts as in vivo, Wistar rats. As to the method: Selected compounds were tested in a short-term prostate apoptosis and proliferation model in castrated rats.
Intact mature male Wistar rats (350-400 g) were castrated and left to recover for 1 week. 7 days after the castration rats received a single subcutaneous injection of testosterone buciclate (TB), a long-acting testosterone ester, in arachis oil (20 mg/kg) with a volume of 1 ml/kg and were subsequently treated once daily orally for 3 days with the test substance at doses between 0 and 1000 µg/kg, dissolved in gelatin/mannitol and dosed with a volume of 1 ml/kg.
At the end of the experiment rats were euthanized, the prostates were removed, weighed and processed for histology.
Apoptosis of the acinar epithelium of the ventral prostate was determined with TUNEL ([…]) staining. Apoptotic cells show nuclear DNA fragmentation and the TUNEL assay end-labels the fragmented DNA by incorporating biotinylated dUTP at the 3'-OH DNA ends using the enzyme Terminal deoxynucleotidyl Transferase (TdT). Positively stained cells are counted per acinus (glandular unit) in the ventral prostate. Proliferation of the acinar epithelium of the ventral prostate was determined by immunohistochemical staining with an antibody directed against Ki67 (clone Mib5). Positively stained cells are counted per acinus (glandular unit) in the ventral prostate. Statistical significance is determined as compared to TB alone by one-way ANOVA.

Sequence of human estrogen receptor β receptor (hERβ) (Q92731 whole entry): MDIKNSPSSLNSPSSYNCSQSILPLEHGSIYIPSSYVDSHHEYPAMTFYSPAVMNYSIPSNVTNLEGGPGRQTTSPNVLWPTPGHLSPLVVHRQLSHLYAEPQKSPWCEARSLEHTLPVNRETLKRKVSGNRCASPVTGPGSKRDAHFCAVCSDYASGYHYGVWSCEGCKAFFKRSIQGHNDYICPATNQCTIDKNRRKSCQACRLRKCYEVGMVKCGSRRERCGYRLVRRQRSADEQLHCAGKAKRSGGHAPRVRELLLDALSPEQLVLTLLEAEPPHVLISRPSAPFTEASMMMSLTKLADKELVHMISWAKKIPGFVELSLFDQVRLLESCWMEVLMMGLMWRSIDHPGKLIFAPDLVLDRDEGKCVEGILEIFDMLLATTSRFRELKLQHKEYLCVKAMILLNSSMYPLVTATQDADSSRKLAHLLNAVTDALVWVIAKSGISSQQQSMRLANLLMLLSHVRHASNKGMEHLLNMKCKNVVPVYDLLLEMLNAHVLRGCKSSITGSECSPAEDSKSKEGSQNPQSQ

For `CC1C(c2ccc(O)cc2)Cc2ccc(O)c(F)c2C1Cc1c(F)cccc1F` (racemic) [Compound 9y, 8-(2,6-difluorobenzyl)-1-fluoro-5,6,7,8-tetrahydro-6-(4-hydroxyphenyl)-7-methyl-naphthalen-2-ol], in series [1], the ERβ/ERα ratio is listed as >8 and the concentration giving a half-maximal response (EC50) is 12000 pM. Besides, the half-life at 1 µM in series [2] came to 110 min.
`C[C@H]1[C@@H](c2ccc(O)cc2)Cc2ccc(O)cc2[C@H]1Cc1ccccc1F` (single isomer, unassigned) [Compound 11a]: in series [3], the ERα eudismic ratio is on record as >1.4. For the same compound, the epithelial cell proliferation entry in series [4] (Ki67 staining, ventral prostate, at 3 µg/kg orally, compared to TB-alone treated rats) is “decrease”. The epithelial cell apoptosis entry in series [4] (TUNEL staining, ventral prostate, castrated rats given TB, treated once daily orally for 3 days, compared to TB alone) is on record as “statistically significant (p<0.01) increase”. Also, in series [4] (increase in epithelial cell apoptosis, once daily orally for 3 days), the “minimal active dose (MAD)” value came out at 3 µg/kg. Moreover, in series [1], the ERβ/ERα ratio turned out to be 189, the ERβ eudismic ratio is >263 and the EC50 turned out to be 380 pM. Further, the half-life at 1 µM in series [2] was 40.5 min.
`CC[C@H]1[C@@H](c2ccc(O)cc2)Cc2ccc(O)cc2[C@H]1Cc1ccccc1F` (single isomer, unassigned) [Compound 11b]: the ERα eudismic ratio in series [3] was found to be 0.9. For the same compound, in series [1], the ERβ/ERα ratio is listed as 167, the ERβ eudismic ratio worked out at 93 and the 50% effective concentration (EC50) turned out to be 150 pM. For the same compound, the half-life at 1 µM in series [2] was determined as 40.7 min.
On to `C[C@H]1[C@@H](c2ccc(O)cc2)Cc2ccc(O)cc2[C@H]1Cc1cccc(F)c1` (single isomer, unassigned) [Compound 11f], for which the ERα eudismic ratio in series [3] is >4. For the same compound, in series [1], the ERβ/ERα ratio came to 21, the ERβ eudismic ratio is on record as 13 and the EC50 was found to be 1200 pM.
In the same order, the values of `C[C@H]1[C@@H](c2ccc(O)cc2)Cc2ccc(O)cc2[C@H]1Cc1ccc(F)cc1` (single isomer, unassigned) [Compound 11g] are >4, 19, 9 and 1400 pM.
On to `C[C@H]1[C@@H](c2ccc(O)cc2)Cc2ccc(O)cc2[C@H]1Cc1ccccc1C#N` (single isomer, unassigned) [Compound 11j], for which, in series [1], the ERβ/ERα ratio was >714, the ERβ eudismic ratio is 143 and the half-maximal effective concentration (EC50) was 140 pM. In addition, the half-life at 1 µM in series [2] was 29.4 min.
As to `CC[C@H]1[C@@H](c2ccc(O)c(F)c2)Cc2ccc(O)cc2[C@H]1Cc1ccccc1F` (single isomer, unassigned) [Compound 11q], the ERα eudismic ratio in series [3] is listed as <0.3. In series [1], the ERβ/ERα ratio is >169, the ERβ eudismic ratio is reported as 7 and the 50% effective concentration (EC50) came out at 590 pM. Also, the half-life at 1 µM in series [2] turned out to be 82.2 min.
With `CC[C@H]1[C@@H](c2ccc(O)cc2)Cc2ccc(O)cc2[C@H]1Cc1ccc(F)cc1` (single isomer, unassigned) [Compound 11w], the ERα eudismic ratio in series [3] was 0.4. In series [1], the ERβ/ERα ratio was 61, the ERβ eudismic ratio amounted to 42 and the half-maximal effective concentration (EC50) came to 360 pM.

These data come from patent EP2406206B1, “TETRAHYDRONAPHTHALEN-2-OL DERIVATIVES” (MSD Oss B.V., priority 2009, dated 2010).
